What was measured:
[1] = In vitro effective concentration tested on HEK293 cells co-transfected with ferret Dopamine receptor D4 using FLIPR assay
[2] = In vitro effective concentration tested on HEK293 cells co-transfected with ferret Dopamine receptor D2 using FLIPR assay

EC50 [1] [nM] | EC50 [2] [nM] | SMILES
2.7 |  | NCCc1ccc(O)c(O)c1
23.2 |  | c1ccc(N2CCN(Cc3nc4ccccc4[nH]3)CC2)nc1 [2-((4-(pyridin-2-yl)piperazin-1-yl)methyl)-1H-benzo[d]imidazole]
22 | 527 | Fc1ccc2[nH]c(CN3CCN(c4ccccn4)CC3)cc2c1 [5-Fluoro-2-(4-pyridin-2-yl-piperazin-1-ylmethyl)-1H-indole]
1.5 |  | CN1CCc2cccc3c2[C@H]1Cc1ccc(O)c(O)c1-3 [APOKYN]

From BindingDB's records for doi:10.1021/jm030505a (Abbott Laboratories, 2004)
